Source: patent publication US8008250B2, “Macrocyclic compounds and compositions useful as BACE inhibitors” (Novartis AG, priority 2005, dated 2011)
pIC50: −log10 of the molar value.

Key:
human BACE = biological target: T1, human BACE (Homo sapiens, UniProt P56817); assay: Test 1: Inhibition of Human BACE; format: biochemical; details: test not named; sentence follows 'at least one of the above-indicated tests'; assigned to BACE Test 1
T1 construct: Recombinant BACE (extracellular domain, expressed in baculovirus and purified using standard methods); made in house
T1 sequence (P56817 46-457 limits assumed): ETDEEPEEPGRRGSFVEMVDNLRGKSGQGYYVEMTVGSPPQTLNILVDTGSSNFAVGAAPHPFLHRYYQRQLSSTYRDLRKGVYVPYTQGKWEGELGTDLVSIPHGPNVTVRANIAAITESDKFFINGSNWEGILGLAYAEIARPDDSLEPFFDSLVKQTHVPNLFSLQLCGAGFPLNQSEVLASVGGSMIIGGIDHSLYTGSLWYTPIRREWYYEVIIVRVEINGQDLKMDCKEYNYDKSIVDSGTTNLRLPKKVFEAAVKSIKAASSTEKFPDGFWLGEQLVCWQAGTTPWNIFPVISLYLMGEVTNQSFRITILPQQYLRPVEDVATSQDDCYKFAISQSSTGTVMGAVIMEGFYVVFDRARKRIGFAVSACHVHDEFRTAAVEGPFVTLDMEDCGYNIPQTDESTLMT
Experimental: Test 1: Inhibition of Human BACE
Recombinant BACE (extracellular domain, expressed in baculovirus and purified using standard methods) at 6 nM concentration is incubated with the test compound at various concentrations for 1 hour at room temperature in 100 mM acetate buffer, pH 4.5, containing 0.1% CHAPS. Synthetic peptide substrate Mca-Ser-Glu-Val-Asn-Leu-Asp-Ala-Glu-Phe-Lys(DNP) (SEQ ID NO: 1) is added to a final concentration of 3 μM and the increase in fluorescence is recorded at excitation of 325 nm and emission at 400 nm in a microplate spectro-fluorimeter for 20 minutes in 1-minute intervals. IC50 values are calculated from percentage of inhibition of BACE-activity as a function of the test compound concentration.

SMILES | melting point [°C] | pIC50 (human BACE)
CC(C)c1cccc(CNC[C@@H](O)[C@@H]2Cc3cccc(c3)OCCCCCC(=O)N(C)[C@@H](C)C(=O)N2)c1 [Example 1, (10S,13S)-13-[(R)-1-Hydroxy-2-(3-isopropyl-benzylamino)-ethyl]-9,10-dimethyl-2-oxa-9,12-diaza-bicyclo[13.3.1]nonadeca-1(19),15,17-triene-8,11-dione] | 132 to 135 | –
CC(C)c1cccc(CNC[C@@H](O)[C@@H]2Cc3cccc(c3)CCCCCCC(=O)N(C)[C@@H](C)C(=O)N2)c1 [Example 4, (3S,6S)-3-[(R)-1-Hydroxy-2-(3-isopropyl-benzylamino)-ethyl]-6,7-dimethyl-4,7-diaza-bicyclo[13.3.1]nonadeca-1(18),15(19),16-triene-5,8-dione] | – | 6.60
CC(C)c1cccc(CNC[C@@H](O)[C@@H]2Cc3cccc(c3)OCCCCS(=O)(=O)C[C@@H](C)C(=O)N2)c1 [Example 6, (9S,12S)-12-[(R)-1-Hydroxy-2-(3-isopropyl-benzylamino)-ethyl]-9-methyl-7,7-dioxo-2-oxa-7lambda*6*-thia-11-aza-bicyclo[12.3.1]octadeca-1(18),14,16-trien-10-one] | 148 to 150 | –
